Laboratory results as given in patent EP1972623A1, “Arylpyridazines as fungicides” (Bayer CropScience AG, priority 2007, dated 2008).

Assay: logP determination via HPLC retention times (calibration with unbranched alkan-2-ones)
Format: physicochemical
Source text: Die Kalibrierung wurde jeweils mit unverzweigten Alkan-2-onn (3 bis 16 Kohlenstoff Atome) mit bekannten IogP Werten durchgeführt (Bestimmung von den logP Werten über die Retentionszeiten durch lineare Interpolation zwischen zwei bestimmten Alkazionen). Die Lambda-max Werte wurden jeweils in den Maxima der Chromatographie-Signale durch UV Spektren zwischen 190nm und 400nm bestimmt.

[1] = HPLC on reversed-phase C 18 columns, EEC Directive 79/831 Annex V.A8, acidic aqueous mobile phase / acetonitrile, linear gradient 10% to 95% acetonitrile
[2] = from retention times, linear interpolation between alkan-2-ones

| Compound | chromatographic logP [2] | also measured |
| --- | --- | --- |
| Cc1ccc(-c2c(C)nnc(Cl)c2-c2c(F)cccc2F)o1 [compound 104] |  | chromatographic logP [1]: 3.26 |
| Cc1nnc(Cl)c(-c2ccccc2F)c1-c1cccs1 [compound 121] |  | chromatographic logP [1]: 3.05 |
| Cc1ccc(C2=C(c3c(Cl)cccc3Cl)C(=O)OC2(C)O)nc1C (stereo not shown) [3-(2,6-Dichlorphenyl)-4-(5,6-Dimethyl-2-pyridyl)5-hydroxy-5-methylfuran-2(5H)-on] | 3.14 |  |
| CC1(O)OC(=O)C(c2ccccc2F)=C1c1cccs1 (stereo not shown) [3-(2-Fluorphenyl)-4-(2-thienyl)-5-hydroxy-5-methylfuran-2(5H)-on] | 2.29 |  |
| Cc1nnc(Cl)c(-c2ccc(F)cc2Br)c1-c1ccc(Cl)s1 [compound 10] |  | chromatographic logP [1]: 4.28 |
| Cc1n[nH]c(=O)c(-c2ccccc2Cl)c1-c1ccc(Cl)s1 [4-(2-Chlorphenyl)-5-(5-chlor-2-thienyl)-6-methylpyridazin-3(2H)-on] | 2.83 |  |
| Cc1ccc(-c2c(C)n[nH]c(=O)c2-c2cc(F)c(F)cc2F)nc1C [5-(5,6-Dimethyl-2-pyridyl)-4-(2,4,5-trifluorphenyl)-6-methylpyridazin-3(2H)-on] | 2.06 |  |
| CC1(O)OC(=O)C(c2c(F)cccc2F)=C1c1ccncc1 (stereo not shown) [3-(2,6-Difluorphenyl)-4-(4-pyridyl)-5-hydroxy-5-methylfuran-2(5H)-on] | 1.4 |  |
| Cc1n[nH]c(=O)c(-c2ccc(F)cc2Cl)c1-c1ccc(Cl)s1 [4-(2-Chlor-4-fluorphenyl)-5-(5-chlor-2-thienyl)-6-methylpyridazin-3(2H)-on] | 2.97 |  |
| CC1(O)OC(=O)C(c2c(F)cccc2F)=C1c1cccs1 (stereo not shown) [3-(2,6-Difluorphenyl)4-(2-thienyl)-5-hydroxy-5-methylfuran-2(5H)-on] | 2.39 |  |
| Cc1nnc(Cl)c(-c2ccccc2Cl)c1-c1cccs1 [compound 59] |  | chromatographic logP [1]: 3.29 |
| CC1(O)OC(=O)C(c2c(F)cccc2F)=C1c1nccs1 (stereo not shown) [3-(2,6-Difluorphonyl)-4-(2-thiazolyl)-5-hydroxy-5-methylfuran-2(5H)-on] | 1.92 |  |
| CC1(O)OC(=O)C(c2cc(F)c(F)cc2F)=C1c1cccs1 (stereo not shown) [3-(2,4,5-Trifluorphonyl)-4-(2-thienyl)-5-hydroxy-5-methylfuran-2(5H)-on] | 2.57 |  |
| CC1(O)OC(=O)C(c2c(Cl)cccc2Cl)=C1c1ccc(Cl)s1 (stereo not shown) [4-(5-Chlor-2-thienyl)-3-(2,6-dichlorphenyl)-5-hydroxy-5-methylfuran-2(5H)-on] | 3.26 |  |
| CC1(O)OC(=O)C(c2ccc(F)cc2Cl)=C1c1cccs1 (stereo not shown) [3-(2-Chlor-4-fluorphenyl)-4-(2-thienyl)-5-hydroxy-5-methylfuran-2(5H)-on] | 2.68 |  |
| Cc1nnc(Cl)c(-c2ccccc2Cl)c1-c1ccc(Cl)s1 [Beispiel 58] | 4.01 | logP [1]: 4,01 |
| CC1(O)OC(=O)C(c2ccccc2F)=C1c1ccc(Cl)s1 (stereo not shown) [4-(5-Chlor-2-thienyl)-3-(2-fluorphenyl)-5-hydroxy-5-methylfuran-2(5H)-on] | 2.93 |  |
| CC1(O)OC(=O)C(c2ccccc2Cl)=C1c1cccs1 (stereo not shown) [3-(2-Chlorphenyl)-4-(2-thienyl)-5-hydroxy-5-methylfuran-2(5H)-on] | 2.44 |  |
| CC1(O)OC(=O)C(c2c(F)cccc2Cl)=C1c1cccs1 (stereo not shown) [3-(2-Chlor-6-fluorphenyl)-4-(2-thienyl)-5-hydroxy-5-methylfuran-2(5H)-on] | 2.61 |  |

| Compound | chromatographic logP [2] | also measured |
| --- | --- | --- |
| CC1(O)OC(=O)C(c2cccc(Cl)c2)=C1c1ccc(Cl)s1 (stereo not shown) [3-(3-Chlorphenyl)-4-(5-chlor-2-thienyl)-5-hydroxy-5-metylfuran-2(5H)-on] | 3.38 |  |
| Cc1n[nH]c(=O)c(-c2cc(F)c(F)cc2F)c1-c1ccc(Cl)s1 [5-(5-Chlor-2-thienyl)-4-(2,4,5-trifluorphanyl)-6-methylpyridazin-3(2H)-on] | 2.88 |  |
| CC1(O)OC(=O)C(c2cc(F)c(F)cc2F)=C1c1ccc(Cl)s1 (stereo not shown) [4.(5-Chlor-2-thienyl)-3-(2,4,5-trifluorphenyl)-5-hydroxy-5-methylfuran-2(5H)-on] | 3.17 |  |
| Cc1nnc(Cl)c(-c2ccc(F)cc2Br)c1-c1cccs1 [compound 11] |  | chromatographic logP [1]: 3.56 |
| Cc1nnc(Cl)c(-c2c(F)cccc2F)c1-c1nccs1 [compound 105] |  | chromatographic logP [1]: 2.51 |
| Cc1ccc(C2=C(c3cc(F)c(F)cc3F)C(=O)OC2(C)O)nc1C (stereo not shown) [3-(2,4,5-Trilluorphenyl)4-(5,6-Dimethyl-2-pyridyl)-5-hydroxy-5-methylfuran-2(5H)-on] | 2.89 |  |
| Cc1nnc(Cl)c(-c2cccc(Cl)c2)c1-c1cccs1 [compound 172] |  | chromatographic logP [1]: 3.34 |
| CC1(O)OC(=O)C(c2c(F)cccc2Cl)=C1c1ccc(Cl)s1 (stereo not shown) [3-(2-Chlor-6-fluorphenyl)-4-(5-chlor-2-thienyl)-5-hydroxy-5-methylfuran-2(5H)-on] | 3.13 |  |
| Cc1n[nH]c(=O)c(-c2c(Cl)cccc2Cl)c1-c1cccs1 [4-(2,6-Dichlorphenyl)-5-(2-thienyl)-6-methylpyridazin-3(2H)-on] | 2.43 |  |
| Cc1n[nH]c(=O)c(-c2ccccc2Cl)c1-c1cccs1 [4-(2-Chlorphenyl)-5-(2-thienyl)-6-methylpyridazin-3(2H)-on] | 2.19 |  |
| Cc1n[nH]c(=O)c(-c2c(Cl)cccc2Cl)c1-c1ccc(Cl)s1 [5-(5-Chlor-2-thienyl)-4-(2,6-dichlorphenyl)-6-methylpyridazin-3(2H)-on] | 3.11 |  |
| Cc1nnc(Cl)c(-c2c(Cl)cccc2Cl)c1-c1ccc(Cl)s1 [compound 46] |  | chromatographic logP [1]: 4.44 |
| 3-(2-Methyl)-4-(2-thienyl)-5-hydroxy-5-methylfuran-2(5H)-on |  | logP [2]: 2.59 |
| Cc1n[nH]c(=O)c(-c2ccc(F)cc2Br)c1-c1ccc(Cl)s1 [4-(2-Brom-4-fluorphenyl)-5-(5-chlor-2-thienyl)-6-methylpyridazin-3(2H)-on] | 3.03 |  |
| Cc1nnc(Cl)c(-c2cc(F)c(F)cc2F)c1-c1ccc(Cl)s1 [compound 86] |  | chromatographic logP [1]: 4.01 |
| Cc1nnc(Cl)c(-c2ccccc2F)c1-c1ccc(Cl)s1 [compound 118] |  | chromatographic logP [1]: 3.7 |
| Cc1nnc(Cl)c(-c2c(F)cccc2F)c1-c1ccncc1 [compound 102] |  | chromatographic logP [1]: 2.08 |
| Cc1nnc(Cl)c(-c2cc(F)c(F)cc2F)c1-c1cccs1 [compound 85] |  | chromatographic logP [1]: 3.39 |
| Cc1n[nH]c(=O)c(-c2cccc3c2OC(F)(F)O3)c1-c1ccc(Cl)s1 [5-(5-Chlor-2-thienyl)-4-(2,2-difluor-1,3-benzodioxol-4-yl)-6-methylpyridazin-3(2H)-on] | 3.18 |  |

| Compound | chromatographic logP [2] | also measured |
| --- | --- | --- |
| Cc1ccc(C2=C(c3c(F)cccc3F)C(C)(O)OC2=O)o1 (stereo not shown) [4-(2,6-Difluorphenyl)-3-(5-Methyl-2-furyl)-5-hydroxy-5-methylfuran-2(5H)-on] |  | logP [2]: 2.35 |
| Cc1n[nH]c(=O)c(-c2ccccc2F)c1-c1ccc(Cl)s1 [5-(5-Chlor-2-thienyl)-4-(2-fluorphenyl)-6-methylpyridazin-3(2H)-on] | 2.64 |  |
| CC1(O)OC(=O)C(c2ccccc2Cl)=C1c1ccc(Cl)s1 (stereo not shown) [3-(2-Chlorphenyl)-4-(5-chlor-2-thienyl)-5-hydroxy-5-methylfuran-2(5H)-on] | 3.91 |  |
| Cc1ccc(-c2c(C)n[nH]c(=O)c2-c2c(F)cccc2F)o1 [5-(5-Methyl-2-furyl)-4-(2,6-difluorphenyl)-6-methylpyridazin-3(2H)-on] | 2.19 |  |
| Cc1nnc(Cl)c(-c2c(F)cccc2Cl)c1-c1cccs1 [compound 55] |  | chromatographic logP [1]: 3.33 |
| Cc1nnc(Cl)c(-c2cccc3c2OC(F)(F)O3)c1-c1ccc(Cl)s1 [compound 1] |  | chromatographic logP [1]: 4.33 |
| Cc1n[nH]c(=O)c(-c2cccc(Cl)c2)c1-c1ccc(Cl)s1 [4-(3-Chlorphenyl)-5-(5-chlor-2-thienyl)-6-methylpyridazin-3(2H)-on] | 3.04 |  |
| Cc1ccc(C2=C(c3c(F)cccc3F)C(=O)OC2(C)O)nc1C (stereo not shown) [3-(2,6-Difluorphenyl)-4-(5,6-Dimethyl-2-pyridyl)-5-hydroxy-5-methylfuran-2(5H)-on] | 2.65 |  |
| Cc1n[nH]c(=O)c(-c2c(F)cccc2F)c1-c1nccs1 [5-(2-Thiazolyl)-4-(2,6-difluorphenyl)-6-methylpyridazin-3(2H)-on] | 1.57 |  |
| Cc1nnc(Cl)c(-c2cc(F)ccc2F)c1-c1ccc(Cl)s1 [compound 119] |  | chromatographic logP [1]: 3.42 |
| CC1(O)OC(=O)C(c2c(F)cccc2F)=C1c1ccc(Cl)s1 (stereo not shown) [4-(5-Chlor-2-thienyl)-3-(2,6-difluorphonyl)-5-hydroxy-5-methylfuran-2(5H)-on] | 2.94 |  |
| Cc1ccccc1-c1c(Cl)nnc(C)c1-c1cccs1 [Beispiel 190] |  | chromatographic logP (HPLC on reversed-phase C 18 columns per EEC Directive 79/831 Annex V.A8, acidic mobile phase (0.1% aqueous formic or phosphoric acid) and acetonitrile, linear gradient 10% to 95% acetonitrile): 3.18 |
| Cc1ccc(-c2c(C)nnc(Cl)c2-c2cc(F)c(F)cc2F)nc1C [compound 87] |  | chromatographic logP [1]: 3.15 |
| CC1(O)OC(=O)C(c2ccc(F)cc2Cl)=C1c1ccc(Cl)s1 (stereo not shown) [3-(2-Chlor-4-fluorphenyl)-4-(5-chlor-2-thienyl)-5-hydroxy-5-methylfuran-2(5H)-on] | 3.24 |  |
| Cc1nnc(Cl)c(-c2cc(Cl)ccc2F)c1-c1ccc(Cl)s1 [compound 120] |  | chromatographic logP [1]: 4.16 |
| CC1(O)OC(=O)C(c2c(Cl)cccc2Cl)=C1c1cccs1 (stereo not shown) [3-(2,6-Dichlorphenyl)-4-(2-thienyl)-5-hydroxy-5-methylfuran-2(5H)-on] | 2.57 |  |
| CC1(O)OC(=O)C(c2cccc(Cl)c2)=C1c1cccs1 (stereo not shown) [3-(3-Chlorphenyl)-4-(2-thienyl)-5-hydroxy-5-methylfuran-2(5H)-on] | 2.73 |  |
| Cc1n[nH]c(=O)c(-c2cc(F)c(F)cc2F)c1-c1cccs1 [5-(2-thienyl)-4-(2,4,5-trifluorphenyl)-6-methylpyridazin-3(2H)-on] | 2.32 |  |
| Cc1n[nH]c(=O)c(-c2c(F)cccc2F)c1-c1ccncc1 [5-(4-Pyridyl)4-(2,6-difluorphenyl)-6-methylpyridazin-3(2H)-on] | 0.93 |  |
